The values that follow come from patent US10087178B2, “Substituted spiropyrido[1,2-a]pyrazine derivative and medicinal use thereof as HIV integrase inhibitor” (priority 2012, dated 2018).

Structures can show the parent of a compound that is named as a salt.

One assay has as its system HIV-1 NL4-3 strain. The experiment in a line: Evaluation of antiviral activity: acute infection system of MT-4 cell with HIV-1 NL4-3 strain. In kind it is cell-based. As to conditions: Human immunodeficiency virus 1, NL43, MT4, 120 h, MT-4 cells infected with HIV-1 NL4-3 strain (MOI 0.05), cultured 5 days, Cell Titer-Glo; read-out: antiviral activity (EC50). In general terms: In ATP-based viability assays light output follows the ATP content of the culture.
As usually defined, the EC50 is the concentration that produces a half-maximal response. For the molecule `CC(C)N1C[C@]2(C[C@H](C(=O)N(C)C)C2)n2cc(C(=O)NCc3ccc(F)cc3F)c(=O)c(O)c2C1=O` [Example S31, N^7′-(2,4-difluorobenzyl)-9′-hydroxy-2′-isopropyl-N^3-N^3-dimethyl-1′,8′-dioxo-1′,2′,3′,8′-tetrahydrospiro[cyclobutane-1,4′-pyrido[1,2-a]pyrazine]- cis-3,7′-dicarboxamide hydrochloride], the EC50 came out at 24 nM.

As for `COc1ccc(CNC(=O)c2cn3c(c(O)c2=O)C(=O)N(C)C[C@]32C[C@@H](CO)C2)c(F)c1Cl` [Example S49], the 50% effective concentration (EC50) was found to be 65 nM. As to `COC[C@H]1C[C@]2(CN(C)C(=O)c3c(OC(=O)CN(C)C)c(=O)c(C(=O)NCc4cccc(Cl)c4F)cn32)C1` [Example S73, 7′-(3-chloro-2-fluorobenzylcarbamoyl)-cis-3-(methoxymethyl)-2′-methyl-1′,8′-dioxo-1′,2′,3′,8′-tetrahydrospiro[cyclobutane-1,4′-pyrido[1,2-a]pyrazin]-9′-yl 2-(dimethylamino)acetate dihydrochloride], the EC50 came to 1.1 nM.

As to `COC[C@H]1C[C@@]12Cn1cc(C(=O)NCc3ccc(F)cc3F)c(=O)c(O)c1C(=O)N2C(C)C` [Example T41, (1S,2S)-N-(2,4-difluorobenzyl)-9′-hydroxy-2′-isopropyl-2-(methoxymethyl)-1′,8′-dioxo-1′,2′,4′,8′-tetrahydrospiro[cyclopropane-1,3′-pyrido[1,2-a]pyrazine]-7′-carboxamide], the 50% effective concentration (EC50) is 2.2 nM. With `CCN1C(=O)c2c(O)c(=O)c(C(=O)NCc3cccc(Cl)c3F)cn2C[C@]12C[C@H](CO)C2` [Example S60, N-(3-chloro-2-fluorobenzyl)-2′-ethyl-9′-hydroxy-cis-3-(hydroxymethyl)-1′,8′-dioxo-1′,2′,4′,8′-tetrahydrospiro[cyclobutane-1,3′-pyrido[1,2-a]pyrazine]-7′-carboxamide hydrochloride], the concentration giving a half-maximal response (EC50) is 13 nM.

Take `CCCCCCCCCCCCCCCC(=O)Oc1c2n(cc(C(=O)NCc3cccc(Cl)c3F)c1=O)[C@]1(CN(C)C2=O)C[C@H](COC)C1` [Example S69, 7′-(3-chloro-2-fluorobenzylcarbamoyl)-cis-3-(methoxymethyl)-2′-methyl-1′,8′-dioxo-1′,2′,3′,8′-tetrahydrospiro[cyclobutane-1,4′-pyrido[1,2-a]pyrazin]-9′-yl palmitate]: the EC50 was 1 nM. Same read-out and setting: the figure for `CN1C[C@]2(C[C@@H](O)C2)n2cc(C(=O)NCc3cccc(Cl)c3F)c(=O)c(O)c2C1=O` [Example S26, N-(3-chloro-2-fluorobenzyl)- trans-3,9′-dihydroxy-2′-methyl-1′,8′-dioxo-1′,2′,3′,8′-tetrahydrospiro[cyclobutane-1,4′-pyrido[1,2-a]pyrazine]-7′-carboxamide hydrochloride] is 3.4 nM.

Staying with this assay, now noted: Human immunodeficiency virus 1, NL43, MT4, 120 h, antiviral activity; MT-4 cells infected with HIV-1 NL4-3 (MOI 0.05), 5 days culture, Cell Titer-Glo luminescence; read-out: EC50.
In the case of `CN1C[C@]2(C[C@H](OCc3ccccc3)C2)n2cc(C(=O)NCc3ccc(F)cc3F)c(=O)c(O)c2C1=O` [Example S10, cis-3-(benzyloxy)-N-(2,4-difluorobenzyl)-9′-hydroxy-2′-methyl-1′,8′-dioxo-1′,2′,3′,8′-tetrahydrospiro[cyclobutane-1,4′-pyrido[1,2-a]pyrazine]-7′-carboxamide hydrochloride], the 50% effective concentration (EC50) was found to be 6.1 nM. Still for that read-out and setting: for `CCO[C@H]1C[C@@]2(CN(C(C)C)C(=O)c3c(O)c(=O)c(C(=O)NCc4ccc(F)cc4F)cn32)C1` [Example S7, N-(2,4-difluorobenzyl)- trans-3-ethoxy-9′-hydroxy-2′-isopropyl-1′,8′-dioxo-1′,2′,3′,8′-tetrahydrospiro[cyclobutane-1,4′-pyrido[1,2-a]pyrazine]-7′-carboxamide hydrochloride] the value was 3.7 nM. Same read-out and setting: the figure for `CCN1C[C@@]2(C[C@@H]2C(=O)N(C)C)n2cc(C(=O)NCc3ccc(F)cc3F)c(=O)c(O)c2C1=O` [Example 19, (1S,2S)—N^7′-(2,4-difluorobenzyl)-2′-ethyl-9′-hydroxy-N^2,N^2-dimethyl-1′,8′-dioxo-1′,2′,3′,8′-tetrahydrospiro[cyclopropane-1,4′-pyrido[1,2-a]pyrazine]-2,7′-dicarboxamide hydrochloride] is 4.2 nM; for `COCCO[C@H]1C[C@@]2(CN(C(C)C)C(=O)c3c(O)c(=O)c(C(=O)NCc4ccc(F)cc4F)cn32)C1` [Example S8, N-(2,4-difluorobenzyl)-9′-hydroxy-2′-isopropyl-trans-3-(2-methoxyethoxy)-1′,8′-dioxo-1′,2′-3′,8′-tetrahydrospiro[cyclobutane-1,4′-pyrido[1,2-a]pyrazine]-7′-carboxamide hydrochloride] it is 5.3 nM. Take `CN1C[C@]2(C[C@@H](O)C2)n2cc(C(=O)NCc3ccc(F)cc3F)c(=O)c(O)c2C1=O` [Example S11, N-(2,4-difluorobenzyl)- trans-3,9′-dihydroxy-2′-methyl-1′,8′-dioxo-1′,2′,3′,8′-tetrahydrospiro[cyclobutane-1,4′-pyrido[1,2-a]pyrazine]-7′-carboxamide hydrobromide]: the concentration for a half-maximal effect (EC50) turned out to be 25 nM.

Staying with this assay, now noted: Human immunodeficiency virus 1, NL43, MT4, 120 h, read-out: antiviral activity (EC50), MT-4 cells infected with HIV-1 NL4-3 strain (MOI 0.05), cultured 5 days, Cell Titer-Glo.
On to `CC(C)N1C[C@]2(C[C@H]2C(=O)N(C)C)n2cc(C(=O)NCc3cccc(Cl)c3F)c(=O)c(O)c2C1=O` [Example T14, (1R,2R)-N^7′-(3-chloro-2-fluorobenzyl)-9′-hydroxy-2′-isopropyl-N^2,N^2-dimethyl-1′,8′-dioxo-1′,2′,3′,8′-tetrahydrospiro[cyclopropane-1,4′ -pyrido[1,2-a]pyrazine]-2,7′-dicarboxamide hydrochloride], for which the concentration giving a half-maximal response (EC50) came to 4.8 nM. On to `COC[C@@H]1C[C@]12CN(C)C(=O)c1c(O)c(=O)c(C(=O)NCc3cccc(Cl)c3F)cn12` [Example T24, (1R,2R)-N-(3-chloro-2-fluorobenzyl)-9′-hydroxy-2-(methoxymethyl)-2′-methyl-1′,8′-dioxo-1′,2′,3′,8′-tetrahydrospiro[cyclopropane-1,4-pyrido[1,2-a]pyrazine]-7′-carboxamide hydrochloride], for which the EC50 was 3.2 nM.

Consider `COC[C@@H]1C[C@]12CN(C)C(=O)c1c(O)c(=O)c(C(=O)NCc3ccc(OC)c(Cl)c3F)cn12` [Example T36, (1R,2R)-N-(3-chloro-2-fluoro-4-methoxybenzyl)-9′-hydroxy-2-(methoxymethyl)-2′-methyl-1′,8′-dioxo-1′,2′,3′,8′-tetrahydrospiro[cyclopropane-1,4′-pyrido[1,2-a]pyrazine]-7′-carboxamide hydrochloride], for which the EC50 was 10 nM.

The assay is the same for the next values; noted with them: MT-4 cells infected with HIV-1 NL4-3 strain (MOI 0.05), cultured 5 days, Cell Titer-Glo; read-out: antiviral activity (EC50).
For the molecule `COC[C@H]1C[C@]2(CN(C)C(=O)c3c(O)c(=O)c(C(=O)NCc4cccc(Cl)c4F)cn32)C1` [Example 28, Monosodium 7′-(3-chloro-2-fluorobenzylcarbamoyl)-cis-3-(methoxymethyl)-2′-methyl-1′,8′-dioxo-1′,2′,3′,8′-tetrahydrospiro[cyclobutane-1,4′-pyrido[1,2-a]pyrazin]-9′-olate], the EC50 was determined as 2.2 nM.

As to `CO[C@H]1C[C@]2(CN(C)C(=O)c3c(O)c(=O)c(C(=O)NCc4cccc(Cl)c4F)cn32)C1` [Example 24, Monosodium 7′-(3-chloro-2-fluorobenzylcarbamoyl)-cis-3-methoxy-2′-methyl-1′,8′-dioxo-1′,2′,3′,8′-tetrahydrospiro[cyclobutane-1,4′-pyrido[1,2-a]pyrazin]-9′-olate], the EC50 was 0.9 nM. Same read-out and setting: for “N-(3-chloro-2-fluorobenzyl)- 9′-hydroxy-cis-3-methoxy-2′- methyl-1′,8′-dioxo- 1′,2′,4′,8′- tetrahydrospiro[cyclobutane- 1,3′-pyrido[1,2-a]pyrazine]- 7′-carboxamide hydrochloride [Example S63]” the value was 4 nM.
